{"source": "patent US11903920B2", "about": "“Cannabinoid formulation: production method and use” (CHIROSYN DISCOVERY TECHNOLOGIES INC., priority 2022, dated 2024)", "origin": "cited, not measured here", "settings": "depending on the method and route of administration"}
{"smiles": "C=C(C)[C@@H]1CCC(C)=C[C@H]1c1c(O)cc(CCCCC)cc1O", "note": "[CBD, 2-[1R-3-methyl-6R-(1-methylethenyl)-2-cyclohexen-1-yl]-5-pentyl-1,3-benzenediol]", "values": [{"measurement": "Half-life", "value": "1.4 to 120", "unit": "h"}]}
